In ChEMBL document CHEMBL6087461, “Cell-Permeable Peptide Inhibitors of the p53-hDM2 Interaction via Foldamer Helix Mimicry and Bis-Thioether Stapling” (J Med Chem, 2025):
pEC50, pIC50: −log10 of the molar value. Each block holds one molecule with its values, some of them ahead of it. Active and inactive are the calls of the source. The rule behind the calls is not given here. Starred links: 1 amine or outer side, 2 acyl side, 3 side chain; linkers in the order of their positions; H or OH if unused. Positions of bridges follow the written chain, without caps; N, C: chain ends. Residues, ends and D or L forms follow the SMILES beside them. *: point of attachment. X2 = CC(C)[C@@H](CNC(N)=O)NC(=O)NC[C@H](C)NC(=O)NC[C@H](CSCC(=O)NCCNC(=O)C[*:1])N[*:2]; X1 = CC(C)[C@@H](CNC(N)=O)NC(=O)NC[C@H](C)NC(=O)NC[C@H](CSCCCCCC[*:1])N[*:2]; X3 = CC(C)[C@@H](CNC(N)=O)NC(=O)NC[C@H](C)NC(=O)NC[C@H](C)N*; NH(CH2CH2O)2(CH2)6Cl = ClCCCCCCOCCOCCN*; Suc = O=C(CCC(=O)[*:2])[*:1]

Legend:
[1] = biological target: Tumour suppressor protein p53/Mdm4 (Homo sapiens, UniProt O15151); assay: PROTAC activity at human DMX/p53 extracted from Escherichia coli interaction by measuring inhibition of interaction by time-resolved fluorescence energy transfer (TRFRET) detection method; format: protein assay
[2] = PROTAC activity at human DM2/p53 extracted from Escherichia coli interaction by measuring inhibition of interaction by time-resolved fluorescence energy transfer (TRFRET) detection method
[3] = test system: HCT-116; assay: Induction of P21 RNA level in human HCT-116 cells expressing wild type p53 measured after 6 hrs by RT-qPCR analysis; format: functional, cell-based; conditions: dose 0.1-10 µM
[4] = test system: HCT-116; assay: Cytotoxicity against human HCT-116 cells assessed as cell viability at 0.1 to 40 uM measured after 2 hrs incubation by LDH release assay; format: functional, cell-based; conditions: dose 0.1-40 µM
[5] = test system: HCT-116; assay: Induction of p53 level in human HCT-116 cells expressing wild type p53 measured after 6 hrs by Western blotting analysis; format: functional, cell-based; conditions: dose 0.1-40 µM
[6] = test system: HCT-116; assay: Induction of hDM2 RNA level in human HCT-116 cells expressing wild type p53 measured after 6 hrs by RT-qPCR analysis; format: functional, cell-based; conditions: dose 0.1-10 µM
[7] = biological target: Tumour suppressor p53/oncoprotein Mdm2 (Homo sapiens) (UniProt P04637+Q00987); assay: PROTAC activity at human MDM2/p53 extracted from Escherichia coli interaction by measuring inhibition of interaction at 100 nM by time-resolved fluorescence energy transfer (TRFRET) detection method relative to control; format: protein assay
[8] = biological target: Tumour suppressor protein p53/Mdm4 (Homo sapiens) (UniProt P04637+O15151); assay: PROTAC activity at human DMX/p53 extracted from Escherichia coli interaction at 100 nM by measuring inhibition of interaction by time-resolved fluorescence energy transfer (TRFRET) detection method relative to control; format: protein assay
[9] = test system: HCT-116; assay: Cytotoxicity against human HCT-116 cells assessed as cell viability at 100 uM by MTS cell viability assay; format: functional, cell-based
[10] = test system: SW480; assay: Cytotoxicity against human SW480 cells expressing […] assessed as cell viability at 0.1 to 40 uM measured after 72 hrs incubation by MTS cell viability assay; format: functional, cell-based; conditions: dose 0.1-40 µM
[11] = test system: SW480; assay: Cytotoxicity against human SW480 cells expressing lower level of human DM2 assessed as cell viability measured after 72 hrs incubation by MTS cell viability assay; format: functional, cell-based
[12] = test system: HCT-116; assay: Effect on increase in wild type p53 level in human HCT-116 cells at 10 uM measured after 6 hrs by Western blot analysis; format: functional, cell-based
[13] = test system: HCT-116; assay: Effect on increase in p21 RNA level in human HCT-116 cells at 10 uM measured after 6 hrs by RT-qPCR analysis; format: functional, cell-based
[14] = test system: HCT-116; assay: Cytotoxicity against human HCT116 cells expressing wild type p53 and overexpressing human DM2 assessed as cell viability measured after 72 hrs incubation by MTS cell viability assay; format: functional, cell-based
[15] = test system: HCT-116; assay: Effect on increase in […] RNA level in human HCT-116 cells at 10 uM measured after 6 hrs by RT-qPCR analysis; format: functional, cell-based
[16] = test system: MCF7; assay: Cytotoxicity against human MCF7 cells expressing wild type p53 and overexpressing human DMX assessed as cell viability measured after 72 hrs incubation by MTS cell viability assay; format: functional, cell-based
[17] = test system: SW480; assay: Cytotoxicity against human SW480 cells expressing p53 mutant and overexpressing human DM2 assessed as cell viability measured after 72 hrs incubation by MTS cell viability assay; format: functional, cell-based
[18] = Permeability in human HeLa cells transfected with Halo-GFP-Mito assessed as accumulation in cytosol measured after 4 hrs incubation by chloroalkane penetration assay; format: ADME, subcellular

Sequence of Tumour suppressor p53/oncoprotein Mdm2 (Homo sapiens) (P04637 whole entry, looked up): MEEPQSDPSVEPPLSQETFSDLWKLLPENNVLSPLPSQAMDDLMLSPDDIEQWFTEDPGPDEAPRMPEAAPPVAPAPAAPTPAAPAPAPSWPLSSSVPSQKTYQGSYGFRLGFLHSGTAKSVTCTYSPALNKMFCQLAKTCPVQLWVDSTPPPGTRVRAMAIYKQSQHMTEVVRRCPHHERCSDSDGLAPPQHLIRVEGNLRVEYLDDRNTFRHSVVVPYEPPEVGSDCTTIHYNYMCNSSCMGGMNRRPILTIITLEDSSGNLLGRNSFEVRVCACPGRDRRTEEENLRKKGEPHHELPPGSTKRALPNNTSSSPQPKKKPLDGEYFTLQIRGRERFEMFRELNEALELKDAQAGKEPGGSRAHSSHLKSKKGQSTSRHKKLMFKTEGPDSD
Sequence of Tumour suppressor p53/oncoprotein Mdm2 (Homo sapiens) (Q00987 whole entry, looked up): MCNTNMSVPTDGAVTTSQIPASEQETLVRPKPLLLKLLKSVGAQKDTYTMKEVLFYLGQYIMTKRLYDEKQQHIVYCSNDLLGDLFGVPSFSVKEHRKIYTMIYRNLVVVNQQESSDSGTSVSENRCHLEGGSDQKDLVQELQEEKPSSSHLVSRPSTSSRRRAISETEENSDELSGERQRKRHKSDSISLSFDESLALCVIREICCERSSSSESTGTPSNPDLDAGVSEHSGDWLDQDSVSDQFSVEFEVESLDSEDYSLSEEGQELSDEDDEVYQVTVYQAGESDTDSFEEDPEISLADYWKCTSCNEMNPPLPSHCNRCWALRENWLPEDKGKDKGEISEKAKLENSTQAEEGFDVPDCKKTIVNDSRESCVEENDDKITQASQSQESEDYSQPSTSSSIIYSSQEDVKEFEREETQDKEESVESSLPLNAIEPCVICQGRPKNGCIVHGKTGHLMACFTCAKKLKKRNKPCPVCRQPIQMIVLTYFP
Sequence of Tumour suppressor protein p53/Mdm4 (P04637 whole entry): as the sequence (P04637 whole entry, looked up) above
Sequence of Tumour suppressor protein p53/Mdm4 (O15151 whole entry): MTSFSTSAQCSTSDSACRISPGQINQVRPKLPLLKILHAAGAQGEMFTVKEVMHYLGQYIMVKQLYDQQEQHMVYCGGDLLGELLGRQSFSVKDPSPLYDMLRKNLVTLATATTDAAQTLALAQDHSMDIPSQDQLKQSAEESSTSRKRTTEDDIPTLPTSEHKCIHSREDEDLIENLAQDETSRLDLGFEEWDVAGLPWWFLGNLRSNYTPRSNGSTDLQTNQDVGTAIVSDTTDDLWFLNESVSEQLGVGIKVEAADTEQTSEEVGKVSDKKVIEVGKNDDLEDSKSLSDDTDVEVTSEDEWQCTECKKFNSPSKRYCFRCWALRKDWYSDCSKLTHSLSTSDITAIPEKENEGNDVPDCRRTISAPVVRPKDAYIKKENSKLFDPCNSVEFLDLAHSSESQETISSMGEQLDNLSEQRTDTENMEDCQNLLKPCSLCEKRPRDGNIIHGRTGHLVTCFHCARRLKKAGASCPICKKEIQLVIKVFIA
Sequence of Tumour suppressor protein p53/Mdm4 (Homo sapiens) (O15151 whole entry, looked up): as the sequence (O15151 whole entry) above
Sequence of Tumour suppressor protein p53/Mdm4 (Homo sapiens) (P04637 whole entry, looked up): as the sequence (P04637 whole entry, looked up) above

- pIC50 [1]: 4.13
- pIC50 [2]: 8.03
SMILES: CC(=O)N[C@@H](CCCCN)C(=O)N[C@H](C(=O)N[C@@H](Cc1ccccc1)C(=O)N[C@H]1CSCCCCCCSC[C@@H](CNC(=O)N[C@@H](C)CNC(=O)N[C@H](CNC(N)=O)C(C)C)NC(=O)[C@H](Cc2c[nH]c3ccccc23)NC(=O)[C@H](Cc2ccc(O)cc2)NC(=O)[C@H](CCC(=O)O)NC1=O)[C@@H](C)O (Ac-KTFCEYW; linker 4-C via X1)
- Activity [3]: Dose-dependent-effect
- Activity [4]: Not active; Indicating Absence Of Direct Effect On Cell Membranes
- Activity [5]: Dose-dependent-effect; Similar To Nutlin-3A
- Activity [6]: Dose-dependent-effect

- pIC50 [1]: 4.55
- pIC50 [2]: 8.00
- inhibition [7]: 99%
- inhibition [8]: 91%
SMILES: CC(C)[C@@H](CNC(N)=O)NC(=O)NC[C@H](C)NC(=O)NC[C@@H]1CSCC(=O)NCCNC(=O)CSC[C@H](NC(=O)[C@H](Cc2ccccc2)NC(=O)[C@H](CO)NC(=O)[C@@H](N)[C@@H](C)O)C(=O)N[C@@H](CCC(=O)O)C(=O)N[C@@H](Cc2ccc(O)cc2)C(=O)N[C@@H](Cc2c[nH]c3ccccc23)C(=O)N1 (H-TSFCEYW; linker 4-C via X2)
- Activity [9]: inactive

- pIC50 [1]: 4.34
- pIC50 [2]: 8.05
- inhibition [7]: inactive
- Activity [8]: inactive
SMILES: CC(C)[C@@H](CNC(N)=O)NC(=O)NC[C@H](C)NC(=O)NC[C@@H]1CSCCCCCCSC[C@H](NC(=O)[C@H](Cc2ccccc2)NC(=O)[C@H](CO)NC(=O)[C@H](CCCCN)NC(=O)[C@@H](N)CCCCN)C(=O)N[C@@H](CCC(=O)O)C(=O)N[C@@H](Cc2ccc(O)cc2)C(=O)N[C@@H](Cc2c[nH]c3ccccc23)C(=O)N1 (H-KKSFCEYW; linker 5-C via X1)
- Activity [10]: Active

- pIC50 [1]: 4.20
- pIC50 [2]: 7.99
- inhibition [7]: inactive
- Activity [8]: inactive
SMILES: CC(C)[C@@H](CNC(N)=O)NC(=O)NC[C@H](C)NC(=O)NC[C@@H]1CSCCCCCCSC[C@H](NC(=O)[C@H](Cc2ccccc2)NC(=O)[C@H](CO)NC(=O)[C@@H](NC(=O)[C@H](CCCCN)NC(=O)[C@@H](N)CCCCN)[C@@H](C)O)C(=O)N[C@@H](CCC(=O)O)C(=O)N[C@@H](Cc2ccc(O)cc2)C(=O)N[C@@H](Cc2c[nH]c3ccccc23)C(=O)N1 (H-KKTSFCEYW; linker 6-C via X1)
- Activity [10]: Active

- pIC50 [1]: 3.58
- pIC50 [2]: 7.80
SMILES: CC(=O)N[C@@H](CC(C)C)C(=O)N[C@H](C(=O)N[C@@H](Cc1ccccc1)C(=O)N[C@H]1CSCCCCCCSC[C@@H](CNC(=O)N[C@@H](C)CNC(=O)N[C@H](CNC(N)=O)C(C)C)NC(=O)[C@H](Cc2c[nH]c3ccccc23)NC(=O)[C@H](Cc2ccc(O)cc2)NC(=O)[C@H](CCC(=O)O)NC1=O)[C@@H](C)O (Ac-LTFCEYW; linker 4-C via X1)
- Activity [3]: Dose-dependent-effect
- Activity [4]: Not active; Indicating Absence Of Direct Effect On Cell Membranes
- Activity [5]: Dose-dependent-effect; Similar To Nutlin-3A And Able To Increase As Low As 0.5 Um
- Activity [6]: Dose-dependent-effect

- pIC50 [1]: 4.66
- pIC50 [2]: 8.34
SMILES: CC(C)[C@@H](CNC(N)=O)NC(=O)NC[C@H](C)NC(=O)NC[C@@H]1CSCCCCCCSC[C@H](NC(=O)[C@H](Cc2ccccc2)NC(=O)[C@H](CO)NC(=O)[C@H](CCCCN)NC(=O)[C@H](CCCNC(=N)N)NC(=O)[C@H](CCCNC(=N)N)NC(=O)[C@@H](N)CCCNC(=N)N)C(=O)N[C@@H](CCC(=O)O)C(=O)N[C@@H](Cc2ccc(O)cc2)C(=O)N[C@@H](Cc2c[nH]c3ccccc23)C(=O)N1 (H-RRRKSFCEYW; linker 7-C via X1)
- Activity [11]: Active
- Activity [12]: inactive
- Activity [13]: inactive
- pIC50 ([14]; HCT-116, 72 h): 5.41
- Activity [15]: inactive
- pIC50 ([16]; MCF7, 72 h): 5.40
- Activity [17]: Active

- pIC50 [1]: 3.90
- pIC50 [2]: 7.71
- inhibition [7]: 97%
- inhibition [8]: 52%
SMILES: CC(C)[C@@H](CNC(N)=O)NC(=O)NC[C@H](C)NC(=O)NC[C@@H]1CSCCCCCCSC[C@H](NC(=O)[C@H](Cc2ccccc2)NC(=O)[C@H](CO)NC(=O)[C@@H](N)[C@@H](C)O)C(=O)N[C@@H](CCC(=O)O)C(=O)N[C@@H](Cc2ccc(O)cc2)C(=O)N[C@@H](Cc2c[nH]c3ccccc23)C(=O)N1 (H-TSFCEYW; linker 4-C via X1)
- Activity [14]: inactive
- Activity [16]: inactive
- Activity [9]: inactive

- pIC50 [1]: 4.99
- pIC50 [2]: 8.44
- inhibition [7]: 99%
- inhibition [8]: 98%
SMILES: CC(C)[C@@H](CNC(N)=O)NC(=O)NC[C@H](C)NC(=O)NC[C@@H]1CSCC(=O)NCCNC(=O)CSC[C@H](NC(=O)[C@H](Cc2ccccc2)NC(=O)[C@H](CO)NC(=O)[C@H](CCCCN)NC(=O)[C@H](CCCNC(=N)N)NC(=O)[C@H](CCCNC(=N)N)NC(=O)[C@@H](N)CCCNC(=N)N)C(=O)N[C@@H](CCC(=O)O)C(=O)N[C@@H](Cc2ccc(O)cc2)C(=O)N[C@@H](Cc2c[nH]c3ccccc23)C(=O)N1 (H-RRRKSFCEYW; linker 7-C via X2)
- Activity [14]: Not active; Compound Was Poorly Active Even At High Concentration
- Activity [16]: inactive

- pEC50 [18]: 6.29
SMILES: CC(C)[C@@H](CNC(N)=O)NC(=O)NC[C@H](C)NC(=O)NC[C@@H]1CSCCCCCCSC[C@H](NC(=O)[C@H](Cc2ccccc2)NC(=O)[C@@H](NC(=O)[C@H](CCCCN)NC(=O)CCC(=O)NCCOCCOCCCCCCCl)[C@@H](C)O)C(=O)N[C@@H](CCC(=O)O)C(=O)N[C@@H](Cc2ccc(O)cc2)C(=O)N[C@@H](Cc2c[nH]c3ccccc23)C(=O)N1 ({NH(CH2CH2O)2(CH2)6Cl-Suc}-KTFCEYW; linker 4-C via X1)

- pEC50 [18]: 5.71
SMILES: CC(C)[C@@H](CNC(N)=O)NC(=O)NC[C@H](C)NC(=O)NC[C@H](C)NC(=O)[C@H](Cc1c[nH]c2ccccc12)NC(=O)[C@H](Cc1ccc(O)cc1)NC(=O)[C@H](CCC(=O)O)NC(=O)[C@H](C)NC(=O)[C@H](Cc1ccccc1)NC(=O)[C@@H](NC(=O)[C@H](CCCCN)NC(=O)CCC(=O)NCCOCCOCCCCCCCl)[C@@H](C)O ({NH(CH2CH2O)2(CH2)6Cl-Suc}-KTFAEYW-X3)

SMILES: COc1ccc(C2=N[C@@H](c3ccc(Cl)cc3)[C@@H](c3ccc(Cl)cc3)N2C(=O)N2CCNC(=O)C2)c(OC(C)C)c1
- Activity [13]: Active
- Activity [15]: Active
